Data: ChEMBL document CHEMBL2010779, “Dibenzocyclooctadiene lignans from Kadsura polysperma and their antineurodegenerative activities” (2012)

Assays:
Format in all cases: functional
Conditions in all cases: read-out: Activity
[1] = test system: PC-12; test: Neuroprotective activity against H2O2-induced cell death in rat PC12 cells assessed as cell viability at 10 uM incubated for 2 hrs prior to H2O2-challenge measured after 24 hrs by MTT assay (reference value: 53.7 +/- 1.7%)
[2] = test system: PC-12; test: Neuroprotective activity against H2O2-induced cell death in rat PC12 cells assessed as cell viability at 1 uM incubated for 2 hrs prior to H2O2-challenge measured after 24 hrs by MTT assay (reference value: 53.7 +/- 1.7%)
[3] = test system: PC-12; test: Neuroprotective activity against amyloid beta(25-35)-induced cell death in rat PC12 cells assessed as cell viability at 10 uM incubated for 2 hrs prior to amyloid beta(25-35)-challenge measured after 24 hrs by MTT assay (reference value: 38.8 +/- 1%)
[4] = test system: PC-12; test: Neuroprotective activity against amyloid beta(25-35)-induced cell death in rat PC12 cells assessed as cell viability at 1 uM incubated for 2 hrs prior to amyloid beta(25-35)-challenge measured after 24 hrs by MTT assay (reference value: 38.8 +/- 1%)
[5] = test system: PC-12; test: Neuroprotective activity against amyloid beta(25-35)-induced cell death in rat PC12 cells assessed as cell viability at 10 uM incubated for 2 hrs prior to amyloid beta(25-35)-challenge measured after 24 hrs by MTT assay (reference value: 34.8 +/- 0.8%)
[6] = test system: PC-12; test: Neuroprotective activity against H2O2-induced cell death in rat PC12 cells assessed as cell viability at 1 uM incubated for 2 hrs prior to H2O2-challenge measured after 24 hrs by MTT assay (reference value: 53.1 +/- 1.1%)
[7] = test system: PC-12; test: Neuroprotective activity against amyloid beta(25-35)-induced cell death in rat PC12 cells assessed as cell viability at 1 uM incubated for 2 hrs prior to amyloid beta(25-35)-challenge measured after 24 hrs by MTT assay (reference value: 34.8 +/- 0.8%)
[8] = test system: PC-12; test: Neuroprotective activity against H2O2-induced cell death in rat PC12 cells assessed as cell viability at 10 uM incubated for 2 hrs prior to H2O2-challenge measured after 24 hrs by MTT assay (reference value: 53.1 +/- 1.1%)

Compound | viability at 10 µM [1] | viability at 1 µM [2] | viability at 10 µM [3] | viability at 1 µM [4] | viability at 10 µM [5] | viability at 1 µM [6] | viability at 1 µM [7] | viability at 10 µM [8]
C/C=C(\C)C(=O)Oc1c(OC)c(OC)cc2c1-c1c(cc(OC)c(OC)c1OC)[C@H](O)[C@H](C)[C@H](C)C2 [METHYL SCHISANTHERIN F] | 53.4% | 50.4% | 41% | 41.4% | – | – | – | –
C/C=C(/C)C(=O)O[C@H]1c2cc3c(c(OC)c2-c2c(cc(OC)c(OC)c2OC)[C@H](OC(=O)/C=C/c2ccccc2)[C@@H](C)[C@H]1C)OCO3 [POLYSPERLIGNAN E] | 58.9% | 57.1% | 39.7% | 39% | – | – | – | –
COc1cc2c(c(OC)c1OC)-c1c(cc3c(c1OC)OCO3)[C@H](O)[C@@H](C)[C@@H](C)C2 [YUNNANKADSURIN B] | – | – | – | – | 33.2% | 51% | 35.2% | 53.3%
C/C=C(\C)C(=O)O[C@H]1c2cc3c(c(OC)c2-c2c(cc(OC)c(OC)c2OC)[C@H](OC(C)=O)[C@@H](C)[C@H]1C)OCO3 [POLYSPERLIGNAN B] | – | – | – | – | 34.1% | 55.9% | 36.4% | 58.9%
C/C=C(\C)C(=O)O[C@H]1c2cc(OC)c(OC)c(OC)c2-c2c(cc3c(c2OC)OCO3)[C@H](OC(=O)CC)[C@H](C)[C@H]1C | 60.7% | 54.6% | 39.3% | 43.1% | – | – | – | –
C/C=C(/C)C(=O)O[C@H]1c2cc3c(c(OC)c2-c2c(cc(OC)c(OC)c2OC)[C@H](OC(=O)/C(C)=C\C)[C@@H](C)[C@H]1C)OCO3 [POLYSPERLIGNAN A] | 58.2% | 55.8% | 46.4% | 39.9% | – | – | – | –
COc1cc2c(c(OC)c1OC)-c1c(cc3c(c1OC)OCO3)[C@H](OC(C)=O)[C@H](C)[C@H](C)C2 [KADSURIN] | – | – | – | – | 32.9% | 57.2% | 35.1% | 44%
C/C=C(/C)C(=O)Oc1c(OC)c(OC)cc2c1-c1c(cc(OC)c(OC)c1OC)[C@H](O)[C@H](C)[C@H](C)[C@H]2OC(=O)/C(C)=C\C [POLYSPERLIGNAN I] | 53.7% | 53.3% | 41.2% | 39% | – | – | – | –
COc1cc2c(c(OC)c1OC)-c1c(cc3c(c1OC)OCO3)[C@H](OC(=O)/C=C\c1ccccc1)[C@H](C)[C@H](C)C2 [POLYSPERLIGNAN F] | 58.5% | 55.2% | 36.4% | 38.4% | – | – | – | –
COc1cc2c(c(OC)c1OC)-c1c(cc3c(c1OC)OCO3)[C@H](O)[C@H](C)[C@H](C)C2 [ISOGOMISIN O] | 55.8% | 48.8% | 33.3% | 38% | – | – | – | –
COc1cc2c(c(OC)c1OC)-c1c(cc3c(c1OC)OCO3)[C@H](OC(=O)/C=C/c1ccccc1)[C@H](C)[C@H](C)C2 [KADSUPHILINS A] | – | – | – | – | 32.3% | 53% | 35.3% | 52.5%
